Experimental data reported in patent US9051339B2, “Sulfur-containing bicyclic compound” (Astellas Pharma Inc., priority 2013, dated 2015).
pEC50: −log10 of the molar value.

Columns and labels:
[1] = system: spontaneous alternation behavior (short-term memory impairment); assay: Y-maze test: improvement effect on MK-801-induced cognitive impairment; type: in vivo, mouse; conditions: oral, once, 30 minutes before test; ddY male mice; MK-801 0.15 mg/kg i.p.; spontaneous alternation rate
Procedure: The effect on the improvement of short-term memory impairment of the compound of the present invention was evaluated using a Y-maze test that is an experimental system of spontaneous alternation behavior.
As the Y maze, a maze, in which three runways having a length of one arm of 40 cm, a height of a wall of 13 cm, a width of a floor of 3 cm, and a width of a top of 10 cm are each joined at 120 degrees in a Y shape, was used. […]
The mouse was placed at one end of a certain place in the runway in the Y maze, and then freely explored for 8 minutes, and the runways into which the mice invaded and the order thereof were recorded. The number of the entries of the mice within a measurement time was counted and defined as a total number of entries. Among these, a combination when the mice invaded into different three runways (for example, in a case where the three arms are referred to as a, b, and c, respectively, and the order of the arms with entries is abccbacab, the number was counted as 4, including the repetition) was defined as the number of spontaneous alternation behaviors. For the spontaneous alternation rate, a spontaneous alternation rate calculated by the following equation was taken as an index of spontaneous alternation behavior: Spontaneous alternation rate=number of spontaneous alternation behaviors/(total number of entries−2)×100. […]

GABAB receptor = target: T1, GABAB receptor (Mus musculus, UniProt Q80T41+Q9WV18); assay: [35S]GTPγS binding test for PAM action, mouse brain cortical membrane; type: biochemical; conditions: 100 μM GABA = 100%; for pEC50: concentration raising reaction rate from 20% with 0.3 μM GABA to 50%, mouse brain cortex membrane, read-out: Potency (PAM Potency of GABAB)
T1 construct: a mouse brain cortex membrane (4 μg); tissue Japan SLC, Inc. (ddY mice); host or cells: mouse brain cortex membrane
Procedure: The function of the GABAB receptor of the compound of the present invention was evaluated using a [^35S] GTPγS binding test. This method is used for the detection of the PAM action of the compound on the GABAB receptor (Journal of Pharmacology and Experimental Therapeutics, 2003, vol. 307(1), p. 322-330; and Molecular Pharmacology, 2001, vol. 60(5), p. 963-971).
The mouse brain cortical membrane was prepared with reference to a method for preparing a rat brain membrane (European Journal of Pharmacology, 1990, vol. 187 (1), p. 27-38).
The cortex (about 30 g) was cut out of the brains of 90 ddY mice (Japan SLC, Inc.). An A buffer was added to the cortex (cortex/A buffer=about 1:3 (wt/vol)), and homogenized with a glass Teflon-lined homogenizer (Teflon: registered trademark) on ice. The homogenate was centrifuged (750 g, 10 min, 4° C.) and a supernatant was then obtained. An A buffer (90 mL) was added to pellets and homogenized on ice, and a supernatant (750 g, 10 min, 4° C.) was then obtained. By repeating this operation, the supernatant was collected.
The supernatant was centrifuged (18000 g, 15 min, 4° C.). Ultrapure water (54 mL) was added to the pellets, left to stand for 30 min on ice, and then centrifuged (39000 g, 20 min, 4° C.). The pellets were suspended in a KH buffer (54 mL), repeatedly frozen and thawed, and centrifuged (18000 g, 15 min) at 4° C. The buffer was added to the pellets and then frozen and thawed, and this operation was repeated until the centrifugation. By a Bradford method using a protein assay (Protein assay CBB solution; Nacalai Tesque, Inc.), a KH buffer suspension of the pellet was prepared at a protein concentration of 10 mg/mL.
The PAM action of the GABAB receptor in the mouse brain cortex of a test drug was evaluated. To each of wells of a 96-well microplate, a test drug diluted with a B buffer at each concentration (3 nM to 30 μM), a mouse brain cortex membrane (4 μg), [^35S] GTPγS (final concentration of 0.34 nM, Muromachi Yakuhin Co., Ltd.; Institute of Isotopes Co., Ltd.), GABA (final concentration of 0.3 μM; Sigma) were added in this order, followed by standing at room temperature for 1 hour. With a harvester (Filtermate, Perkin-Elmer, Inc.), the suspension was suction-filtered through a glass filter (UniFilter 96-well GF/B filter plates, Perkin-Elmer, Inc.). The glass filter was washed with a C buffer that had been ice-cooled. After drying the glass filter, a liquid scintillation cocktail (50 μL, MicroScinti-PS; PerkinElmer, Inc.) was added to each well. The amount of [^35S] GTPγS bound to the membrane was measured on a plate reader (TopCount, PerkinElmer, Inc.).
The maximum reaction rate of 100 μM GABA was taken as 100%. […] At a time when the test drug was not added, the concentration of the test drug that increased the reaction rate from 20% with 0.3 μM GABA to 50% was taken as a PAM Potency (μM) of the GABAB of the test drug. In the presence of 0.3 μM GABA, the maximum reaction rate of the effect on the GABAB receptor when the test drug was administered up to maximum 30 μM was taken as a PAM Efficacy (%) of the GABAB of the test drug.
The Potency and Efficacy of several representative Example Compounds of the present invention are shown in Table below (In the Table, Ex represents Example Compound No. The “Potency” represents the PAM Potency of GABAB of the test drug, and the “Efficacy” represents PAM Efficacy (%) of GABAB of the test drug. These shall apply hereinafter).

T1 sequence (Q9WV18 20-960): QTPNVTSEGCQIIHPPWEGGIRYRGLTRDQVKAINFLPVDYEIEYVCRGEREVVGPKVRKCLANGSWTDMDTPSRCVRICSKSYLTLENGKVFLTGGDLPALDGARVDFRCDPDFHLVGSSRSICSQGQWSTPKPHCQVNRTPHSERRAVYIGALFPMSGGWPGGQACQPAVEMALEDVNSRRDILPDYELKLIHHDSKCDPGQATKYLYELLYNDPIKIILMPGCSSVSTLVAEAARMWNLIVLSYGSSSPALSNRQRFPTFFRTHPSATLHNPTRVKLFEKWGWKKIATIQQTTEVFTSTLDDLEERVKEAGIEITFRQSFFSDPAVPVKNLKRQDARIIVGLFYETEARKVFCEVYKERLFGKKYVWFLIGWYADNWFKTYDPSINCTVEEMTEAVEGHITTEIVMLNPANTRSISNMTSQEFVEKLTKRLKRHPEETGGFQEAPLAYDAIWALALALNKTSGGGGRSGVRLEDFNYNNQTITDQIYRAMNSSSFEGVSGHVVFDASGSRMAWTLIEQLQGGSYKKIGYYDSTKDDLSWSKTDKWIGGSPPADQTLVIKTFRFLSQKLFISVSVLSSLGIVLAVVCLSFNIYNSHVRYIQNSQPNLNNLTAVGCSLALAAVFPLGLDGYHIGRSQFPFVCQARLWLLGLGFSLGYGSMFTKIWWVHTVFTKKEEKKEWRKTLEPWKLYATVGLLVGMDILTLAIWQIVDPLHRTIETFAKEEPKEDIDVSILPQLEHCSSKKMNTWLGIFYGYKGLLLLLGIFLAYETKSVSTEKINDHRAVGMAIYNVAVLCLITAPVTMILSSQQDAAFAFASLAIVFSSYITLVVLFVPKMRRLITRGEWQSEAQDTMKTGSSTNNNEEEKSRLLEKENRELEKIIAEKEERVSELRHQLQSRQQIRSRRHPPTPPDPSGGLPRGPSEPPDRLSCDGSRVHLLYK
T1 sequence (Q80T41 41-940): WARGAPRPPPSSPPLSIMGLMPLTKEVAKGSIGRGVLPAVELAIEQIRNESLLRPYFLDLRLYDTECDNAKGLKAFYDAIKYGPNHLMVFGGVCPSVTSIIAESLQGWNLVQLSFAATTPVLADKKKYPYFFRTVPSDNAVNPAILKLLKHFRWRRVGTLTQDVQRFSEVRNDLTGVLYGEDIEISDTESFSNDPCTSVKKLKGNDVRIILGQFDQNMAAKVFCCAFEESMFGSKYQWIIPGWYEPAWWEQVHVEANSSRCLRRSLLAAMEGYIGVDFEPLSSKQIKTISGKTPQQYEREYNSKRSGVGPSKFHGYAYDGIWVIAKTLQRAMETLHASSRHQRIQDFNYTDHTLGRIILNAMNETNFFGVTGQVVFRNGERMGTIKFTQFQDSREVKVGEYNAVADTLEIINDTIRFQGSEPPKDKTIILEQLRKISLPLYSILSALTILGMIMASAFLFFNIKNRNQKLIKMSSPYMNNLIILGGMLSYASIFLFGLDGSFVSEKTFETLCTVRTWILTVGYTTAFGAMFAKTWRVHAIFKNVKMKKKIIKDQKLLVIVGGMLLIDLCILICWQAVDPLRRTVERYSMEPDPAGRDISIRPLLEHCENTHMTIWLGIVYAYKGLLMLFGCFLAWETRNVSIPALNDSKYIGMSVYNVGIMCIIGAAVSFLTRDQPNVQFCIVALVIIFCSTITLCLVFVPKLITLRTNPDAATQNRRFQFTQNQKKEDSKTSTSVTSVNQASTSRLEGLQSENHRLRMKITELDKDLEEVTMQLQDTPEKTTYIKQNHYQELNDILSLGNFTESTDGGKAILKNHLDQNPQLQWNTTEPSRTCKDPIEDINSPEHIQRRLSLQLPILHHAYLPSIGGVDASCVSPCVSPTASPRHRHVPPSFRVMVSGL

Row | pEC50 (GABAB receptor) | Efficacy (PAM Efficacy of GABAB) (GABAB receptor; maximum reaction rate in presence of 0.3 μM GABA, test drug up to 30 μM) | Emax (GABAB receptor; maximum reaction rate in presence of 0.3 μM GABA, test drug up to 30 μM, read-out: Efficacy (PAM Efficacy of GABAB)) | SMILES | MED [1]
1 | 6.96 | 300% | – | Cc1nc(CN2CC[C@@H](O)[C@H](O)C2)c2cc(C3CCC(C)(C)CC3)sc2n1 (single isomer, unassigned) [Ex31, trans-1-{[6-(4,4-dimethylcyclohexyl)-2-methylthieno[2,3-d]pyrimidin-4-yl]methyl}piperidine-3,4-diol] | 1.0 mg/kg
2 | 6.96 | – | 207% | Cc1nc(CN2CCS(=O)(=O)CC2)c2cc(C3CCC(C)(C)CC3)sc2n1 [Ex2, 6-(4,4-dimethylcyclohexyl)-4-[(1,1-dioxidothiomorpholin-4-yl)methyl]-2-methylthieno[2,3-d]pyrimidine] | 0.1 mg/kg
